According to article PMC12680861, “Comparative analysis of LJ-4378 and tirzepatide in mouse models of obesity and weight regain” (Archives of Pharmacal Research, 2025):

Legend:
CYP1A2 = biological target: T1, CYP1A2 (Homo sapiens, UniProt P05177); test: CYP enzyme inhibition in pooled human liver microsomes (phenacetin substrate); conditions: microsomes, 10 µM
T1 sequence (P05177 1-516): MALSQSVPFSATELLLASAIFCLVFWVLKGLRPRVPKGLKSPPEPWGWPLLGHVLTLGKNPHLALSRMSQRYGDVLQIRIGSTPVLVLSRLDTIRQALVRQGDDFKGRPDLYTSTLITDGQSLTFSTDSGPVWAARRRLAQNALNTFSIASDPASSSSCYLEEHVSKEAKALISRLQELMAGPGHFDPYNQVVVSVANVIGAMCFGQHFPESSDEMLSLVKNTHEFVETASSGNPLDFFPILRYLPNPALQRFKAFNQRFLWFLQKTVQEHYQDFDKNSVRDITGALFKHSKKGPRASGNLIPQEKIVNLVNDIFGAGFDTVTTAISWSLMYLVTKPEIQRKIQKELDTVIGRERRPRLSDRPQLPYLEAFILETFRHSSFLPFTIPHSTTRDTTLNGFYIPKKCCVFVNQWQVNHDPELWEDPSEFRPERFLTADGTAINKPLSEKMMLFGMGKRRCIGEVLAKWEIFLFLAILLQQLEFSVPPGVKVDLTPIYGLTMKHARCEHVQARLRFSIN
Procedure: (§1) Cytochrome 450 (CYP) enzyme inhibition was evaluated using pooled human liver microsomes (Corning, #452117). […] Substrates and corresponding metabolites for each CYP isoform were as follows: phenacetin and acetaminophen for CYP1A2 (Sigma Aldrich, #77440 and A7085, respectively), diclofenac and 4'-hydroxydiclofenac for CYP2C9 (Sigma Aldrich, D6899; TRC, H825225), S-mephenytoin and 4'-hydroxymephenytoin for CYP2C19 (Sigma Aldrich, UC175; Santacruz, sc210197), dextromethorphan and dextrorphan for CYP2D6 (Sigma Aldrich, #81091 and UC205), and midazolam and 1'-hydroxymidazolam for CYP3A4 (KFDA; Sigma Aldrich, UC430).
(§2) Samples were preincubated at 37 °C for 5 min, and the reaction was initiated by the addition of the NADPH regeneration system, followed by incubation at 37 °C for 15 min. The reaction was terminated by adding acetonitrile containing the internal standard, and centrifuged at 15,000 rpm for 5 min at 4 °C. The supernatant was analyzed by LC–MS/MS using a Nexera XR system (Shimadzu, Japan) coupled with a TSQ Vantage mass spectrometer (Thermo, USA). […] Metabolites were quantified in multiple reaction monitoring (MRM) mode with Xcalibur software (version 4.4).
(§3) All experiments were performed in duplicate with variability ≤ 15%. The percent activity of each CYP enzyme was calculated based on metabolite formation relative to the no-inhibitor control.

CYP2C9 = CYP2C9 (Homo sapiens, UniProt P11712); test: CYP enzyme inhibition in pooled human liver microsomes (diclofenac substrate); conditions: microsomes, 10 µM
Procedure: as §1, §2, §3

CYP2C19 = CYP2C19 (Homo sapiens, UniProt P33261); test: CYP enzyme inhibition in pooled human liver microsomes (S-mephenytoin substrate); conditions: microsomes, 10 µM
Procedure: as §1, §2, §3

CYP2D6 = CYP2D6 (Homo sapiens, UniProt P10635); conditions: microsomes, 10 µM
Procedure: as §1, §2, §3

CYP3A4 = CYP3A4 (Homo sapiens, UniProt P08684); test: CYP enzyme inhibition in pooled human liver microsomes (midazolam substrate); conditions: at 10 µM, 15 min
Procedure: as §1, §2, §3

[1] = Pharmacokinetic study in mice, single I.V. or P.O. administration; type: in vivo, male C57BL/6 J mice; conditions: for F (oral bioavailability): dose-normalized AUCinf
Procedure: The pharmacokinetics of LJ-4378 were evaluated in male C57BL/6 J mice following a single administration by either the oral (P.O.) or intravenous (I.V.) route. For P.O., LJ-4378 was administered at 10, 20, or 50 mg/kg in a vehicle composed of 0.5 mg/mL L-ascorbic acid, 5% DMSO, 20% PEG400, 20% Tween 80, and 55% of 0.1% copovidone. For I.V. administration, a 2 mg/kg dose was delivered via tail vein injection in a vehicle consisting of 5% DMSO, 25% PEG400, and 70% sterile water. Blood samples (200 μL) were collected at 5, 15, and 30 min and 1, 2, 4, 8, 12, and 24 h post-dose for the P.O. groups, and at 2, 5, 15, and 30 min and 1, 2, 4, 8, and 12 h post-dose for the I.V. group. Plasma was separated by centrifugation, and the concentrations of LJ-4378 were determined using a validated LC–MS/MS method. Pharmacokinetic parameters were calculated using non-compartmental analysis with Phoenix WinNonlin (v8.3), and included Cmax, Tmax, AUClast, AUCinf, t1/2, and clearance (Maclean et al. [2011]). Oral bioavailability was calculated using dose-normalized AUCinf values.

[2] = Tissue partition coefficient extrapolated from rat via plasma unbound fractions
Procedure: When calculating KP,T for LJ-4378 in […], Eq. (1) was used:1 KP,T=CT,ss/Cp,ss where CT,ss and Cp,ss represented the tissue and plasma concentrations at 270 min after the initiation of LJ-4378 infusion. In addition, under the free-drug hypothesis, the KP,T can be expressed as the ratio of the unbound fractions in plasma ( fup ) and tissue ( fu,T ) [Eq. (2)]. Given similar interspecies values of tissue unbound fraction (Poulin and Theil [2000]), the rat KP,T values were extrapolated to those in mice and humans using the following Eq. (3):2 KP,T=fup/fu,T 3 KP,T,extrapolated=KP,T,rat×fup/fup,rat

CYP2C19, sequence (P33261 whole entry): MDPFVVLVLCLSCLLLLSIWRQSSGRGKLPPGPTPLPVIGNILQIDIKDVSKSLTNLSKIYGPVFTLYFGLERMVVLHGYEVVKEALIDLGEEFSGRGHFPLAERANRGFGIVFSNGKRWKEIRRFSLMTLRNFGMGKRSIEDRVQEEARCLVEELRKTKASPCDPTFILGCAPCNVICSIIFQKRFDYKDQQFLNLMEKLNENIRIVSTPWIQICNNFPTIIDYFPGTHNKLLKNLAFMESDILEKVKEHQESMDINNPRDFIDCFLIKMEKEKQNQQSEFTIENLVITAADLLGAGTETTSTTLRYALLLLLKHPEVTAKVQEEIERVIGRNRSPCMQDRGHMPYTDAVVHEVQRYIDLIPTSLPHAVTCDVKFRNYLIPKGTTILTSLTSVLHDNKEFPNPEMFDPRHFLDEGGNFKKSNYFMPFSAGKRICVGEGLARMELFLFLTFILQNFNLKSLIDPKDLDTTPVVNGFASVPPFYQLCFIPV
CYP2C9, sequence (P11712 whole entry): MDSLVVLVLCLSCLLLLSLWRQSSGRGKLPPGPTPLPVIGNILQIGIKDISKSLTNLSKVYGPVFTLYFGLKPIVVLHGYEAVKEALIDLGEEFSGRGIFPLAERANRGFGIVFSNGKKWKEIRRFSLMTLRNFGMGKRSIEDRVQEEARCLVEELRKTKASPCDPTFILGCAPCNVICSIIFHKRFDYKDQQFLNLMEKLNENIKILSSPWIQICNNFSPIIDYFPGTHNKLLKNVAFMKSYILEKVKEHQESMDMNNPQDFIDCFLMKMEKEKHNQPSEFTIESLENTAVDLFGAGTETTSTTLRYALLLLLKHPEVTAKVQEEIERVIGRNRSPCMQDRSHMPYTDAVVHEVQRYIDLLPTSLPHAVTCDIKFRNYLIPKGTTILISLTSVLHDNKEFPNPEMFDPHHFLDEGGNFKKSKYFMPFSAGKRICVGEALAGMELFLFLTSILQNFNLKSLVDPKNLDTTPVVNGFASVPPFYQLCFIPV
CYP2D6, sequence (P10635 whole entry): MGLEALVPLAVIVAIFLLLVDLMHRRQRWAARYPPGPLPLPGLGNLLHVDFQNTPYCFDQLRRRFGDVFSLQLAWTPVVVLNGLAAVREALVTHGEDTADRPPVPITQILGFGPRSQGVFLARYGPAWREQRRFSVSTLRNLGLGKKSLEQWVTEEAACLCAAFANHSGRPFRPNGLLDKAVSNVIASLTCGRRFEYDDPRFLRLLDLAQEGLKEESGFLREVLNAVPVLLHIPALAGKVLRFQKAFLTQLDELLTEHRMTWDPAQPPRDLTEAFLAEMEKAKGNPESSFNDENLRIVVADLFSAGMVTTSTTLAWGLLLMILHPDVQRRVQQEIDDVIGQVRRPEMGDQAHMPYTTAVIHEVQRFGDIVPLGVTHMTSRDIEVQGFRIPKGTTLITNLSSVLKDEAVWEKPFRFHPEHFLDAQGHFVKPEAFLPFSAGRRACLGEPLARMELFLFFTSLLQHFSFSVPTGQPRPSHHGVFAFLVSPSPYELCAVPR
CYP3A4, sequence (P08684 whole entry): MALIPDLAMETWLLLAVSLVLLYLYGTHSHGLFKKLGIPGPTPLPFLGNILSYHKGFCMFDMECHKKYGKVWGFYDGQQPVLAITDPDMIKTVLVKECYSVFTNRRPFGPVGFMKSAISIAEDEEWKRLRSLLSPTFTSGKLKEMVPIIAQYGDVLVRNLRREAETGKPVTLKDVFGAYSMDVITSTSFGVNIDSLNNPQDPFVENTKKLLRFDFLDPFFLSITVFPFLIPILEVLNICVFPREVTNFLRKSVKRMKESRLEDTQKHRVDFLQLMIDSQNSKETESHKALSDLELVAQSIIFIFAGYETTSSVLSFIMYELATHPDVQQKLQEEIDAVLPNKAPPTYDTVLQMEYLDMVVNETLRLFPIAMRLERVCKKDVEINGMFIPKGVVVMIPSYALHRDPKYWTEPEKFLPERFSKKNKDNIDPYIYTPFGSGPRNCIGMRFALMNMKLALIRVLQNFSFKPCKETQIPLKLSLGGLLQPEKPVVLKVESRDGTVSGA

CCCCC#Cc1nc(N)c2ncn([C@@H]3SC[C@@H](O)[C@H]3O)c2n1 [LJ-4378]
% of control activity CYP1A2 (CYP1A2): 82.2% | % of control activity CYP2C9 (CYP2C9): 95.8% | % of control activity CYP2C19 (CYP2C19): 85.3% | % of control activity CYP2D6 (CYP2D6): 89.3% | % of control activity CYP3A4 (CYP3A4): 96.9% | AUC0-t ([1]; I.V. 2.00 mg/kg): 411.45 ng·h/mL | CL ([1]; I.V. 2.00 mg/kg): 80.7 (mL/min)/kg | Cmax ([1]; I.V. 2.00 mg/kg): 2395.23 ng/mL | Tmax ([1]; I.V. 2.00 mg/kg): 1.8 min | t1/2 ([1]; I.V. 2.00 mg/kg): 27.6 min | AUC0-t ([1]; P.O. 10.00 mg/kg): 1273.67 ng·h/mL | CL ([1]; P.O. 10.00 mg/kg): 128.5 (mL/min)/kg | Cmax ([1]; P.O. 10.00 mg/kg): 1220.57 ng/mL | Tmax ([1]; P.O. 10.00 mg/kg): 4.8 min | t1/2 ([1]; P.O. 10.00 mg/kg): 158 min | F (oral bioavailability) ([1]; P.O. 10.00 mg/kg): 62.93% | AUC0-t ([1]; P.O. 20.00 mg/kg): 3067.21 ng·h/mL | CL ([1]; P.O. 20.00 mg/kg): 103.2 (mL/min)/kg | Cmax ([1]; P.O. 20.00 mg/kg): 2401.74 ng/mL | Tmax ([1]; P.O. 20.00 mg/kg): 15 min | t1/2 ([1]; P.O. 20.00 mg/kg): 233 min | F (oral bioavailability) ([1]; P.O. 20.00 mg/kg): 78.42% | AUC0-t ([1]; P.O. 50.00 mg/kg): 8446.78 ng·h/mL | CL ([1]; P.O. 50.00 mg/kg): 93.0 (mL/min)/kg | Cmax ([1]; P.O. 50.00 mg/kg): 5307.60 ng/mL | Tmax ([1]; P.O. 50.00 mg/kg): 30 min | t1/2 ([1]; P.O. 50.00 mg/kg): 187 min | F (oral bioavailability) ([1]; P.O. 50.00 mg/kg): 86.08% | Steady state tissue partition coefficient (KP,T), Adipose ([2]; Humans (extrapolated)): 0.200 | Steady state tissue partition coefficient (KP,T), Brain ([2]; Humans (extrapolated)): 0.0443 | Steady state tissue partition coefficient (KP,T), Liver ([2]; Humans (extrapolated)): 1.04 | Steady state tissue partition coefficient (KP,T), Lungs ([2]; Humans (extrapolated)): 0.540 | Steady state tissue partition coefficient (KP,T), Adipose ([2]; Mice (extrapolated)): 0.197 | Steady state tissue partition coefficient (KP,T), Brain ([2]; Mice (extrapolated)): 0.0437 | Steady state tissue partition coefficient (KP,T), Liver ([2]; Mice (extrapolated)): 1.03 | Steady state tissue partition coefficient (KP,T), Lungs ([2]; Mice (extrapolated)): 0.533
